# Laboratory results reported in US20260183283A1 (priority 2022, published 2026).
# Experiments:
# [1] = test system: Pank1,2 neural knockout mice; test: Open field test in Pank1,2 neural knockout mice; format: in vivo; details: 22.5 ppm in chow from postnatal day 14; postnatal day 45
# Protocol: The mice were maintained at 72°±2° F., humidity 50%±10% and a 14-hour light/10-hour dark cycle with the dark cycle starting at 20:00 hrs. Water was supplied ad libitum. […] The mice were randomized into the treatment arms. […] Each animal was placed in the center of the arena under standard overhead lighting and the total distance traveled and the percentage of time in motion were recorded.
# [2] = Excerpt: Safety and tolerability endpoints will include monitoring and recording of AEs, clinical laboratory test results (hematology, serum chemistry, and urinalysis), vital sign measurements, 12-lead ECG results, and physical examination findings. The PA/MMA cohort will also be screened for suicidal ideation using the C-SSRS.
# in vivo [3] = details: monkey
# in vivo [4] = details: rat
# [5] = test system: SynCre^+Pank1^−/−Pank2^−/− mice; test: Neurometabolites by 1H MRS in SynCre+Pank1−/−Pank2−/− mice; format: in vivo; details: 10 mg/kg/day (75 ppm) in chow; midbrain 1H MRS at P45; normalized to total creatine; mean ± SD
# Protocol: The ^1H MRS studies were performed on a Bruker Clinscan 7T magnetic resonance imaging (MRI) scanner (Bruker BioSpin MRI GmbH, Ettlingen, Germany). Mice were anesthetized using isoflurane mixed with oxygen (1-2%) and the respiration rate was monitored. Each MRI was acquired with a mouse brain surface receive coil positioned over the mouse head and placed inside a 72 mm transmit/receive coil. After the localizer, a T2-weighted turbo spin echo sequence was performed in the coronal (TR/TE=2290/41 ms, matrix size=192×256, slice thickness 0.5 mm, number of slices=14) and axial (TR/TE=3841/50 ms, matrix size=192×144, slice thickness 0.4 mm, number of slices=42) orientations. The T2-weighted scans were used to position a 3.5×4.5×2.0 mm^3 voxel for spectroscopy in the midbrain to cover thalamus and hippocampus. […] The in vivo ^1H MRS data were quantified as the Metabolite to tCr ratio using LCModel software (v.6.3), a widely applied MRS analysis tool that employs a least-squares-based prior-knowledge fitting program. The concentration of metabolites was measured using the unsuppressed water peak as a concentration standard. […]
# Data analysis: Statistical significance (p values) was determined using a two-tailed Student's t test using GraphPad software. The MRS parameters were analyzed using ‘R’ 4.0.2 and the mean values and standard deviations were calculated for each group of mice. […]
# in vivo [6] = details: dog
# in vivo [7] = details: female, rat
# [8] = test system: Pcca^−/−PCCA(A138T)^tg/0 mice; test: Survival of Pcca−/−PCCA(A138T)tg/0 mice; format: in vivo; details: 22.5 ppm (3 mg/kg) in chow; untreated ~51%
# Excerpt: Water was supplied ad libitum.
# At postnatal day 90, the probability of survival of Pcca^−/−PCCA(A138T)^tg/0 mice was ˜51%.
# PanK = test: Phase 1 pharmacodynamic biomarkers, plasma pantothenate and whole blood acetyl-CoA; format: in vivo, human; details: MAD cohorts at steady-state
# Excerpt: Pharmacodynamic biomarker assessments will include whole blood acetyl-CoA, plasma pantothenate, and other exploratory PD biomarkers.
# Pharmacodynamic biomarker samples will be analyzed using a validated assay for the PD assessments.
# In MAD cohorts at steady-state, decreases in the PanK substrate, pantothenate, were observed, concurrent with increases in the PanK product, acetyl-CoA, in whole blood.
# [9] = in vivo
# Protocol: Holter monitoring will be obtained as indicated in the SOE. Blood and urine for PK and PD will be obtained and safety assessments will be performed. In addition, Cohort 3 (70 mg cohort) will have CSF obtained via lumbar puncture for PK assessment.
# [10] = 60 mg, fed vs fasted
# Protocol: All subjects will receive 2 doses of study drug in a crossover manner, separated by a washout period of 7 days or 5 half-lives up to 21 days (whichever is longer).
# Study drug will then be administered along with a standardized high-calorie (approximately 800 to 1000 calories) breakfast. The meal will be ingested entirely within 30 minutes, and study drug will be administered 30 minutes after the start of the meal.
# [11] = oral gavage 10 mg/animal and 200 mg/animal; tablet or suspension
# [12] = test system: Pank1,2 neural knockout mice; test: Total forebrain CoA in Pank1,2 neural knockout mice; format: in vivo; details: 75 ppm in chow from postnatal day 14; assessed at postnatal day 45
# Excerpt: (§1) Water was supplied ad libitum. Mice were maintained on a chow diet with purified ingredients containing 19% kcal protein, 66.5% kcal carbohydrate and 14.4% kcal fat (Envigo #TD170542) which was similar to standard rodent chow (LabDiet #5013). The mice were randomized into the treatment arms. […] However, this is an approximation, as SynCre^+Pank1^−/−Pank2^−/− mice both weigh less and eat less than wild-type mice. […] At the end of the dark cycle, individual mice were placed in an open rectangular arena (36.8 cm×43.2 cm) for 5 min during the light cycle and motor activity was evaluated using a video tracking system provided by HVS Image with associated 2100 Plus software (San Diego, CA, USA). Each animal was placed in the center of the arena under standard overhead lighting and the total distance traveled and the percentage of time in motion were recorded. The behaviors of age-matched control animals, treated with Compound (I) and untreated, were quantified and compared. […] Liver, forebrain and hindbrain were quickly excised, approximately 30-50 mg pieces were immediately flash frozen in liquid N2 and stored frozen at −80° C. until analysis. The plasma and tissue samples were used for Compound (I) and total CoA determinations.
# Statistical significance was determined using a two-tailed Student's t test (GraphPad software) and P-values are shown about the bars, N=6-8. […]
# [13] = test system: Pank1,2 neural knockout mice; test: Body weight of Pank1,2 neural knockout mice; format: in vivo; details: 75 ppm in chow from postnatal day 14
# Excerpt: as §1
# Following analysis of movement, all animals were sacrificed at postnatal Day 45 for examination of tissue CoA levels.
# [14] = test system: C57BL/6J (wild-type) mice; details: oral gavage QD 0.1, 1, 3, 10 or 30 mg/kg for one week; four hours after last dose
# Protocol: Tissue Total CoA Determinations: Total CoA was quantified as described earlier. Either frozen brain or liver tissue (30-40 mg) was homogenized in 1 mM potassium hydroxide (KOH) to hydrolyze all the acyl chains and then the CoA was derivatized with monobromobimane (mBBr). […] The retention time was determined by running a CoA standard before each set of samples. Total CoA was quantified using a standard curve generated with known amounts of CoA.
# Control animals were administered 0.5% methylcellulose QD for one week. Four hours after the last dose, the animals were sacrificed, plasma and tissues were collected, and CoA levels were determined in tissues. […] Statistical significance was determined for total CoA using a Student's t-test calculated with GraphPad software and P-values compared to the control animals are noted on the figure panels.
# [15] = of all Compound (I) treated subjects
compound,measurement,setting,value
"O=C(Cc1ccc(C2CC2)c(F)c1)N1CCN(c2ccc(Cl)nn2)CC1 [Compound (I), 1-(4-(6-chloropyridazin-3-yl)piperazin-1-yl)-2-(4-cyclopropyl-3-fluorophenyl)ethan-1-one]",Movement in open field,[1],some improvement in movement
same,Tolerability,"[2]; 60 healthy adult subjects, Phase 1 study",generally well-tolerated
same,Mild treatment-related TEAE abdominal pain,[2]; [15],1.7%
same,Mild treatment-related TEAE headache,[2]; [15],5%
same,Mild treatment-related TEAE nausea,[2]; [15],1.7%
same,clearance,in vivo [3]; iv,19.7 mL/min/kg
same,bioavailability,in vivo [3]; po,17.6%
same,clearance,in vivo [4]; iv,32.6 mL/min/kg
same,bioavailability,in vivo [4]; po,35.2%
same,GABA (GABA/tCr),[5],0.40 ± 0.02
same,clearance,in vivo [6]; iv,16.9 mL/min/kg
same,bioavailability,in vivo [6]; po,29.8%
same,NOAEL at 13 weeks,in vivo [7],8 mg/kg/day
same,Probability of survival at postnatal day 90,[8],~94%
same,Plasma Compound (I) concentration up to which increases in whole blood acetyl-CoA were observed,PanK,~200 mg/mL
same,Plasma pantothenate,PanK; healthy adult subjects,decreased
same,Whole blood acetyl-CoA,PanK; healthy adult subjects,increased
same,Blood brain barrier penetration,[9],crossed the blood brain barrier
same,Delay of absorption by food,[10],~2 h
same,Increase in plasma exposure with food,[10],~1.3 fold
same,Dose proportionality of exposure as defined by AUC0-24,[11],dose proportional
same,Dose proportionality of exposure as defined by Cmax,[11],close to dose proportional
same,Increase of forebrain CoA levels vs untreated mice,[12],~70%
same,Body weight gain compared with untreated mice,[13],significantly increased
same,Brain (forebrain and hindbrain) total CoA response,[14],dose-responsive increase
